Laboratory results reported in US7459477B2, “Substituted N-phenyl-phenoxy nicotinic acid-(thio)amides and their use as herbicides” (Nihon Nohyaku, Co., Ltd., priority 2001, dated 2008).

Tests used:
Assay type in all cases: in vivo
[1] = system: powdery mildew fungus (Erysiphe graminis hordei); experiment: Controlling effect on barley powdery mildew (Test Example 5); conditions: 200 ppm; potted barley at 1 leaf stage sprayed one day after inoculation; one week after the inoculation; 25° C.
Procedure: Controlling Effect on Barley Powdery Mildew Potted barley plants at the 1 leaf stage were inoculated with spores of powdery mildew fungus (Erysiphe graminis hordei) by sprinkling. After one day, they were sprayed with a liquid chemical prepared by diluting a preparation containing each compound listed in Table 1, Table 3 or Table 4 as an active ingredient to adjust the concentration to 200 ppm. Then, they were allowed to stand in a room thermostated at 25° C. One week after the inoculation, the lesion area of each leaf was measured and then compared with that on the untreated plot, whereby the controlling effect was judged according to the following criterion. Criterion for Judgment: • A: control efficacy 100 to 95% • B: control efficacy 94 to 80% • C: control efficacy 79 to 60% • D: control efficacy 59 to 0%

[2] = system: Two-Spotted Spider Mite (Tetranychus Urticae); experiment: Acaricidal effect on two-spotted spider mite (Test Example 3); conditions: 500 ppm; kidney bean leaf disc with female adults sprayed; two days after the treatment; 25° C.
Procedure: Acaricidal Effect on Two-Spotted Spider Mite (Tetranychus Urticae)
A leaf disc with a diameter of 2 cm was made of a kidney bean leaf, placed on wet filter paper, inoculated with female adult two-spotted spider mites, and then uniformly sprayed, on a turntable, with 50 ml of a liquid chemical prepared by diluting a preparation containing each compound listed in Tables 1 to 4 as an active ingredient to adjust the concentration to 500 ppm. After the spraying, the leaf disc was allowed to stand in a room thermostated at 25° C. Two days after the treatment with the preparation, the dead insects were counted and the acaricidal effect was judged according to the criterion shown in Test Example 1. The test was carried out with two replications of 10 insects.

[3] = system: Smaller Tea Tortrix (Adxophyes sp.); experiment: Insecticidal effect on smaller tea tortrix (Test Example 2); conditions: 500 ppm; tea leaves immersed about 30 seconds, inoculated with larvae; eight days after the inoculation; 25° C., humidity 70%
Procedure: Insecticidal Effect on Smaller Tea Tortrix (Adxophyes sp.)
Tea leaves were immersed for about 30 seconds in a liquid chemical prepared by diluting a preparation containing each compound listed in Tables 1 to 4 as an active ingredient to adjust the concentration to 500 ppm. After air-dryness, the tea leaves were placed in a plastic Petri dish with a diameter of 9 cm and inoculated with larvae of smaller tea tortrix, after which the dish was allowed to stand in a room thermostatted at 25° C. and having a humidity of 70%. Eight days after the inoculation, the dead and alive were counted. The mortality was calculated according to the following equation and the insecticidal effect was judged according to the criterion shown in Test Example 1. The test was carried out with triplicate groups of 10 insects.

[4] = system: Diamond Back Moth (Plutella xylostella); experiment: Insecticidal effect on diamond back moth (Test Example 1); conditions: 500 ppm; Chinese cabbage seedling with eggs immersed about 30 seconds; six days after the immersion; 25° C.
From the text: Insecticidal Effect on Diamond Back Moth (Plutella xylostella)
Adult diamond back moths were released and allowed to oviposit on a Chinese cabbage seedling. Two days after the release, the seedling having the eggs deposited thereon was immersed for about 30 seconds in a liquid chemical prepared by diluting a preparation containing each compound listed in Tables 1 to 4 as an active ingredient to adjust the concentration to 500 ppm. After air-dryness, it was allowed to stand in a room thermostatted at 25° C. Six days after the immersion, the hatched insects were counted. The mortality was calculated according to the following equation and the insecticidal effect was judged according to the criterion shown below. The test was carried out with triplicate groups of 10 insects.

[5] = system: Green Peach Aphid (Myzus Persicae); experiment: Insecticidal effect on green peach aphid (Test Example 4); conditions: 500 ppm; stems and leaves of Chinese cabbage sprayed; six days after the spraying; greenhouse
From the text: Insecticidal Effect on Green Peach Aphid (Myzus Persicae)
A Chinese cabbage plant was planted in each of plastic pots with a diameter of 8 cm and a height of 8 cm, and green peach aphids were propagated on the plant. Then, the stems and leaves were sufficiently sprayed with a liquid chemical prepared by diluting a preparation containing each compound listed in Tables 1 to 4 as an active ingredient to adjust the concentration to 500 ppm. After air-drying, the pots were allowed to stand in a greenhouse. Six days after the spraying, green peach aphids parasitic on each Chinese cabbage plant were counted and the control efficacy was calculated, whereby the […] effect was judged according to the criterion shown below. Control efficacy (%)=100−[(T×Ca)/(Ta×C)]×100 • Ta: number of parasites before spraying in treated group, • T: number of parasites after spraying in treated group,
Ca: number of parasites before spraying in untreated group, • […]: number of parasites after spraying in untreated group. Criterion for Judgment: • A: control efficacy 100% • B: control efficacy 99 to 90% • C: control efficacy 89 to 80% • D: control efficacy 79 to 50%

Compound | controlling effect (control efficacy rating, lesion area) [1] | acaricidal effect (mortality rating) [2] | insecticidal effect (mortality rating) [3] | insecticidal effect (mortality rating) [4] | control efficacy rating [5]
CC(C)c1cc(C(F)(C(F)(F)F)C(F)(F)F)ccc1NC(=O)c1cn(C)nc1C(F)(F)F [1-5] | B or higher | – | – | – | –
Cn1cc(C(=O)Nc2ccc(C(F)(C(F)(F)F)C(F)(F)F)c3c2CCCC3)c(C(F)(F)F)n1 [1-12] | B or higher | – | – | – | –
CCCC(C)c1cc(C(OC)(C(F)(F)F)C(F)(F)F)ccc1NC(=O)c1c(C)nn(C)c1Cl (stereo not drawn) [1-23] | B or higher | B or higher | – | – | –
CC(C)CC(C)c1cc(C(C(F)(F)F)C(F)(F)F)ccc1NC(=O)c1cn(C)nc1C(F)(F)F (stereo not drawn) [1-30] | B or higher | – | – | – | –
Cc1c(C(=O)Nc2ccc(C(C(F)(F)F)C(F)(F)F)cc2C(C)CC(C)C)cnn1C (stereo not drawn) [1-45] | B or higher | – | – | – | –
CC(C)CC(C)c1cc(C(C(F)(F)F)C(F)(F)F)ccc1NC(=O)c1cnn(C)c1[S+](C)[O-] (stereo not drawn) [1-47] | B or higher | – | – | – | –
CC(C)CC(C)c1cc(C(C(F)(F)F)C(F)(F)F)ccc1NC(=O)c1cnn(CCF)c1Cl (stereo not drawn) [1-52] | B or higher | B or higher | B or higher | B or higher | B or higher
CCn1ncc(C(=O)Nc2ccc(C(C(F)(F)F)C(F)(F)F)cc2C(C)CC(C)C)c1Br (stereo not drawn) [1-54] | B or higher | B or higher | – | – | –
Cc1c(C(=O)Nc2ccc(C(C(F)(F)F)C(F)(F)F)cc2C(C)CC(C)C)c(Cl)nn1C (stereo not drawn) [1-60] | – | – | B or higher | – | –
CCn1nc(C)c(C(=O)Nc2ccc(C(O)(C(F)(F)F)C(F)(F)F)cc2C(C)CC(C)C)c1Br (stereo not drawn) [1-83] | B or higher | – | – | – | –
CCCc1nn(C)c(Cl)c1C(=O)Nc1ccc(C(C(F)(F)F)C(F)(F)F)cc1C(C)CC(C)C (stereo not drawn) [1-133] | B or higher | – | – | B or higher | –
CC(C)CC(C)c1cc(C(C(F)(F)F)C(F)(F)F)ccc1NC(=O)c1snnc1C(F)(F)F (stereo not drawn) [3-12] | – | – | B or higher | B or higher | –
CC(C)CC(C)c1cc(C(C(F)(F)F)C(F)(F)F)ccc1NC(=O)c1sccc1Cl (stereo not drawn) [3-28] | – | – | B or higher | – | –
CC(C)CC(C)c1cc(C(C(F)(F)F)C(F)(F)F)ccc1NC(=O)c1sccc1I (stereo not drawn) [3-30] | B or higher | – | B or higher | – | –
COC(c1ccc(NC(=O)c2sccc2I)c(C(C)CC(C)C)c1)(C(F)(F)F)C(F)(F)F (stereo not drawn) [3-31] | B or higher | – | B or higher | – | –
Cc1cc(C(=O)Nc2ccc(C(C(F)(F)F)C(F)(F)F)cc2C(C)CC(C)C)n(C)n1 (stereo not drawn) [4-3] | B or higher | B or higher | – | – | –
CC(C)CC(C)c1cc(C(C(F)(F)F)C(F)(F)F)ccc1NC(=O)c1c(C(F)(F)F)nn(C)c1Cl (stereo not drawn) [Compound No. 1-103, N-{2-(1,3-dimethylbutyl)-4-[2,2,2-trifluoro-1-(trifluoromethyl)ethyl]phenyl}-5-chloro-1-methyl-3-trifluoromethylpyrazole-4-carboxamide] | – | B or higher | B or higher | B or higher | –
